In BigSolDB 2.1:

O=C1Nc2ccccc2C1=O
Conditions | solubility (mole fraction)
in PEG-400, 298.15 K | 0.0985
in PEG-400, 308.15 K | 0.109
in PEG-400, 318.15 K | 0.121
in PEG-400, 328.15 K | 0.132
in PEG-400, 338.15 K | 0.144

solubility (mole fraction)
Conditions | in ethanol | in ethyl acetate | in ethylene glycol | in isopropanol | in propylene glycol | in sec-butanol | in transcutol | in water
298.15 K | 0.00409 | 0.00568 | 0.00754 | 0.00419 | 0.00673 | 0.00516 | 0.523 | 5.14e-05
308.15 K | 0.00506 | 0.00738 | 0.0092 | 0.00545 | 0.00827 | 0.00596 | 0.539 | 8.08e-05
318.15 K | 0.0065 | 0.00926 | 0.011 | 0.00694 | 0.01 | 0.0071 | 0.561 | 0.000113
328.15 K | 0.00755 | 0.0111 | 0.0127 | 0.00867 | 0.0112 | 0.00814 | 0.581 | 0.000152
338.15 K | 0.00897 | 0.013 | 0.0146 | 0.0105 | 0.0133 | 0.00899 | 0.598 | 0.000202
